Measured values published in patent US20120083508A1, “ALPHA-2B RECEPTOR AGONIST AND ANTICONVULSANT COMPOSITIONS FOR TREATING CHRONIC PAIN” (ALLERGAN, INC., priority 2006, published 2012).

Key:
[1] = tested on: Chung rat model of chronic pain; experiment: Chung rat model of chronic pain (allodynia reversal); assay type: in vivo; details: for PAIN REVERSAL: Compound No. 27 10 μg/kg given immediately after Gabapentin 10 mg/kg, rats; for pain relief when administered alone at the dose used in the combination: intraperitoneally, doses of Table 4 (No. 95 1 μg/kg, No. 27 10 μg/kg)
[2] = tested on: Chung rat model of chronic pain; experiment: as above; assay type: in vivo; details: for PAIN REVERSAL: rats
Method: Gabapentin was administered intraperitoneally to rats at a minimally effective dose; that is, the compound was administered at a dose that, when administered alone, is the minimum dose required to relieve pain (this dose was calculated by finding, first, the dose that produced drug's maximum effect—that is, the dose that fully alleviated pain—and dividing that dose by three; the result is a dose that is slightly less than 50% of the dose that is required to produce the drug's maximum effect). The rats then immediately received one of two alpha-2B receptor agonists, Compound No. 95 and Compound No. 27, or received no additional compound, at all. […] Pain reversal was then assessed using the Chung rat model of chronic pain. The model is described by Kim and Chung, Pain, […], at 355-363 (1992) and in U.S. Pat. No. 7,091,232, both of which are incorporated by reference herein.
The right-hand column in Table 5 provides the P values showing statistical significance comparing the effect of the alpha-2B receptor agonist+Gabapentin to the effect of Gabapentin alone. The significance was determined using a 2-sided unpaired Student t test.
(§1) A minimal effect is typically <50% reversal of allodynia. Optimal effects are typically >80% reversal of allodynia. Gabapentin by itself is not fully effective so its peak effect is about 62% reversal of allodynia. An ineffective intraperitoneal (IP) Gabapentin dose is 3 mg/kg. A minimally effective dose is 10 mg/kg and its peak effect is achieved with 30 mg/kg. […] Locomotor activity is determined automatically by placing the rat in a digicom analyzer chamber (Omnitech Electronic). These chambers have photocells criss-crossing the box that are broken as the animal moves around. The computer analyses this movement and records total activity over 5-minute time periods.

locomotor activity = experiment: Locomotor / exploratory activity in a novel chamber (digicom analyzer); assay type: in vivo, rat
Method: as §1

[3] = IP 1 ug/kg + Gabapentin 10 mg/kg

For `C1=NC(CC2CCc3ccccc3C2)CN1` (stereo not drawn) [Compound 27], the “PAIN REVERSAL” value [1] was 78%, the “PAIN REVERSAL” value ([1]; listed as Compound No. 27) was 78% and the “% Allodynia Reversal (30 min peak)” value ([1]; IP 10 ug/kg + Gabapentin 10 mg/kg) was 77.50 ± 4.7%. The “% Allodynia Reversal (30 min peak)” value ([1]; IP, 10 ug/kg, alone) was 43.75 ± 7.4%, the “% Allodynia Reversal (30 min peak)” value ([1]; IP, 30 ug/kg, alone) was 74.59 ± 7.4% and the “% Allodynia Reversal (30 min peak)” value ([1]; IP, 100 ug/kg, alone) was 90.86 ± 5.9%. The “pain relief when administered alone at the dose used in the combination” value ([1]; alone) was “not effective in relieving pain”.

In the case of `C[C@@H](c1c[nH]c(=S)[nH]1)c1cccc2ncccc12` [Compound 95], the “% Allodynia Reversal (30 min peak)” value [1, 3] is reported as 75.46 ± 5.3%, the “% Allodynia Reversal (30 min peak)” value ([1]; PO, 1 ug/kg, alone) is reported as 1.52 ± 1.0% and the “% Allodynia Reversal (30 min peak)” value ([1]; PO, 3 ug/kg, alone) is reported as 58.21 ± 5.3%. The “% Allodynia Reversal (30 min peak)” value ([1]; PO, 10 ug/kg, alone) was 78.43 ± 4.6%, the “% Allodynia Reversal (30 min peak)” value ([1]; PO, 30 ug/kg, alone) was 81.53 ± 6.2% and the “% Allodynia Reversal (30 min peak)” value ([1]; PO, 100 ug/kg, alone) was 81.26 ± 8.8%. The “pain relief when administered alone at the dose used in the combination” value ([1]; alone) was “not effective in relieving pain” and the “PAIN REVERSAL” value ([2]; Compound No. 95 1 μg/kg given immediately after Gabapentin 10 mg/kg) was 75%.

`OCCNC(=S)NCc1cccc(Cl)c1F` [Compound 131] was tested, and the “% Allodynia Reversal (30 min peak)” value ([1]; IP, 1 ug/kg, alone) was 3.92 ± 1.8%, the “% Allodynia Reversal (30 min peak)” value ([1]; IP, 3 ug/kg, alone) was 54.67 ± 6.1% and the “% Allodynia Reversal (30 min peak)” value ([1]; IP, 10 ug/kg, alone) was 85.24 ± 6.0%. The “% Allodynia Reversal (30 min peak)” value ([1]; IP, 30 ug/kg, alone) was 90.04 ± 6.1%, the “% Allodynia Reversal (30 min peak)” value ([1]; IP, 100 ug/kg, alone) was 95.31 ± 4.7% and the “% Allodynia Reversal (30 min peak)” value ([1]; IP, 300 ug/kg, alone) was 91.7 ± 5.3%. For the same compound, the “% Allodynia Reversal (30 min peak)” value [2, 3] was 88.00 ± 5.4%.

`NCC1(CC(=O)O)CCCCC1` [Gabapentin] was tested, and the “peak effect, reversal of allodynia” value ([1]; Gabapentin by itself, IP, peak effect achieved with 30 mg/kg) was “about 62%”, the “% Allodynia Reversal (30 min peak)” value ([1]; IP, 1 mg/kg, alone) was 5.89 ± 1.3% and the “dose at which peak effect is achieved” value ([1]; IP, alone) was 30 mg/kg. For the same compound, the “ineffective intraperitoneal (IP) dose” value ([1]; IP, alone) was 3 mg/kg, the minimally effective dose ([1]; IP, alone, minimal effect is <50% reversal of allodynia) was 10 mg/kg and the “sedative effects (locomotor activity)” value (locomotor activity; 100 mg/kg) was “significantly reduced locomotor activity”. The “reduction in exploratory activity compared to vehicle treated rats” value (locomotor activity; 100 mg/kg intraperitoneally 15 minutes before novel chamber, between 40-60 minutes after dosing) was > 50%, the “PAIN REVERSAL” value ([2]; Gabapentin 10 mg/kg intraperitoneally, alone) was 45% and the “PAIN REVERSAL” value ([2]; Gabapentin 10 mg/kg intraperitoneally, alone, listed as gabapentin) was 45%. For the same compound, the “% Allodynia Reversal (30 min peak)” value ([2]; IP, 10 mg/kg, alone) was 40.8 ± 9.3% and the “% Allodynia Reversal (30 min peak)” value ([2]; IP, 30 mg/kg, alone) was 61.56 ± 5.7%.
